The source of these data is patent publication US8022103B2, “Ester prodrugs of prostratin and related phorbol compounds” (Salvia Sciences, Inc., priority 2005, dated 2011).

Values after ≈ are worked out from the molar mass of the structure shown. Where two headings read alike, the source gives them in different places.

The subject of one series is HIV-1IIIB. In words: PBMC antiviral assay, HIV-1IIIB. The series is classed as cell-based. The conditions noted are these: human PBMCs. The procedure:
Compounds SA-101A and SA-101B were tested for antiviral activity against HIV-1 in peripheral blood mononuclear cells (PBMC) acutely infected with the HIV-1 isolates. PBMCs were derived from normal HIV-1 negative donors, and cultured under conditions which promote cell survival and HIV replication. Fresh human blood was obtained commercially from Biological Specialty Corporation (Colmar, Pa.). The low passage clinical isolates HIV-1Ba-L, HIVIIIB, and SIVmac251 were from the NIAID AIDS Research and Reference Reagent Program. Immediately before use, pre-titered aliquot of the viruses were removed from storage in a freezer (−80° C.) and thawed rapidly to room temperature in a biological safety cabinet. Phytohemagglutinin (PHA-P) was obtained from Sigma (St. Louis, Mo.) and recombinant IL-2 was obtained from R&D Systems Inc. (Minneapolis, Minn.). Antiviral activity was tested from a high-test concentration of 100 μM or 100 μg/ml with nine ½-log serial dilutions of the compound to derive applicable IC50 (concentration inhibition virus replication by 50%), IC90 (concentration inhibition virus replication by 90%), TC50 (concentration decreasing cell viability by 50%) and TI (therapeutic index: TC50/IC50) values.
Preparation of PMBC. Fresh Human PBMCs, Seronegative for HIV and HBV, were isolated from screened donors (Interstate Blood Bank, Inc. Memphis, Tenn.). Cells were pelleted/washed 2-3 times by low speed centrifugation and resuspensded in PBS to remove contaminating platelets. The leukophoresed blood was then diluted 1:1 with Dulbecco's Phosphate Buffered Saline (DPBS) and layered over 14 mL of Lymphocyte Separation Medium (LSM; Cellgro® by Mediatech, Inc.; density 1.078+/−0.002 g/ml; Cat. # 85-072-CL) in a 50 mL centrifuge tube and then centrifuged for 30 minutes at 600×g. […]
PMBC assay. […] Pooling (mixing) of mononuclear cells from more than one donor is used to minimize the variability observed between individual donors, which results from quantitative and qualitative differences in HIV infection and overall response to the PHA and IL-2 of primary lymphocyte populations. […]

Another series concerns HepG2-2.2.15 cells. Put plainly: Dye uptake cell viability in HepG2-2.2.15 cells. The series is classed as cell-based. Conditions: at the concentrations evaluated. The procedure: HepG2 2.2.15 Antiviral Assay. The assay developed is similar to that described ion the literature (Korba et al., 1991, Antiviral Res. 15: 217-228; Korba et al., 1992, Antiviral Res. 19: 55-70) with the exception that viral DNA detection and quantification have been improved and simplified (Buckwold et al., 2004, Antiviral Res. 61(1): 57-62). Briefly, HepG2-2.2.15 cells are plated in 96-well microtiter plates. Only the interior wells are utilized to reduce “edge effects” observed during cell culture; the exterior wells are filled with complete medium to help minimize sample evaporation. After 16-24 hours the confluent monolayer of HepG2-2.2.15 cells is washed and the medium is replaced with complete medium containing various concentrations of a test compound in triplicate. […] Six days following the initial administration of the test compound, the cell culture supernatant is collected, treated with pronase and DNAse and then used in a real-time quantitative TaqMan PCR assay. The PCR-amplified HBV DNA is detected in real-time by monitoring increases in fluorescence signals that result from the exonucleolytic degradation of a quenched fluorescent probe molecule that hybridizes to the amplified HBV DNA. […] Antiviral activity is calculated from the reduction in HBV DNA levels (IC50). […] The therapeutic index (TI) is calculated as TC50/IC50.

As usually defined, the IC50 is the concentration at which inhibition is half-maximal. The low end stands for inhibition by little substance, the high end for a need for much substance. The IC90 is the concentration needed for an effect of 90%. The compound `CC(=O)O[C@@]12C[C@@H](C)[C@@]3(O)[C@@H](C=C(CO)C[C@]4(O)C(=O)C(C)=C[C@@H]34)[C@@H]1C2(C)C` [SA-101A, 12-deoxyphorbol 13-acetate] registered an IC50 in the series on HIV-1IIIB (Human immunodeficiency virus 1, PBMC) of 0.09 mg/L (≈ 0.23 µM). Moreover, in the series with HIV-1IIIB (Human immunodeficiency virus 1, PBMC, read-out: IC90), the concentration for an effect of 90% (IC90) was 0.5 mg/L (≈ 1.28 µM). In addition, in the series on HepG2-2.2.15 cells, the Cytotoxicity entry is “no cytotoxicity”.
In turn, `CC(=O)OC12CC(C)C3(O)C(C=C(COC(=O)CCC(=O)O)CC4(O)C(=O)C(C)=CC43)C1C2(C)C` (centres unmarked) [SA-101B, Prostratin Succinate] yielded a 90% effect concentration (IC90) in the series on HIV-1IIIB (40% Human AB serum) greater than 1.00 mg/L. Also, in the series on HepG2-2.2.15 cells, the Cytotoxicity entry is recorded as “no cytotoxicity”.
